Measurements: the NIST ThermoML archive (doi:10.1021/je034208m)
Numbers after ± are expanded uncertainties.

Assay: xn = mol fraction of the nth substance listed
Conditions: 101.33 kPa, Liquid; for speed of sound: Sing-around technique in a fixed-path interferometer

CCCC(C)O (stereo not drawn) [pentan-2-ol] + CCCCCCCC
Conditions | mass density, 293.15 K [kg/m3] | mass density, 298.15 K [kg/m3] | mass density, 303.15 K [kg/m3] | speed of sound, 293.15 K [m/s] | speed of sound, 298.15 K [m/s] | speed of sound, 303.15 K [m/s] | viscosity, 293.15 K [mPa·s] | viscosity, 298.15 K [mPa·s] | viscosity, 303.15 K [mPa·s]
x1 = 0.0509 | 705.58 ± 0.78 | 701.48 ± 0.79 | 697.35 ± 0.8 | 1190 ± 1 | 1170 ± 1 | 1149 ± 1 | 0.548 ± 0.01 | 0.517 ± 0.009 | 0.486 ± 0.009
x1 = 0.105 | 709.15 ± 0.78 | 705.03 ± 0.79 | 700.87 ± 0.8 | 1189 ± 1 | 1169 ± 1 | 1148 ± 1 | 0.566 ± 0.01 | 0.53 ± 0.01 | 0.498 ± 0.009
x1 = 0.1853 | 714.98 ± 0.79 | 710.84 ± 0.8 | 706.65 ± 0.8 | 1188 ± 1 | 1168 ± 1 | 1147 ± 1 | 0.598 ± 0.011 | 0.56 ± 0.01 | 0.525 ± 0.01
x1 = 0.2976 | 723.78 ± 0.8 | 719.63 ± 0.8 | 715.43 ± 0.81 | 1188 ± 1 | 1168 ± 1 | 1147 ± 1 | 0.658 ± 0.012 | 0.613 ± 0.011 | 0.572 ± 0.01
x1 = 0.3968 | 732.4 ± 0.81 | 728.24 ± 0.82 | 724.03 ± 0.82 | 1189 ± 2 | 1169 ± 2 | 1149 ± 2 | 0.732 ± 0.013 | 0.678 ± 0.012 | 0.629 ± 0.011
x1 = 0.4953 | 741.91 ± 0.83 | 737.73 ± 0.83 | 733.5 ± 0.84 | 1192 ± 2 | 1172 ± 2 | 1153 ± 2 | 0.841 ± 0.015 | 0.77 ± 0.014 | 0.709 ± 0.013
x1 = 0.5965 | 752.73 ± 0.85 | 748.53 ± 0.85 | 744.29 ± 0.86 | 1198 ± 2 | 1178 ± 2 | 1158 ± 2 | 1.008 ± 0.018 | 0.915 ± 0.016 | 0.826 ± 0.015
x1 = 0.6993 | 764.97 ± 0.88 | 760.76 ± 0.88 | 756.5 ± 0.88 | 1207 ± 2 | 1187 ± 2 | 1167 ± 2 | 1.296 ± 0.024 | 1.147 ± 0.021 | 1.022 ± 0.018
x1 = 0.7971 | 777.92 ± 0.91 | 773.74 ± 0.91 | 769.48 ± 0.91 | 1218 ± 2 | 1199 ± 2 | 1179 ± 2 | 1.727 ± 0.033 | 1.495 ± 0.027 | 1.307 ± 0.024
x1 = 0.8997 | 792.82 ± 0.95 | 788.69 ± 0.95 | 784.49 ± 0.95 | 1233 ± 2 | 1214 ± 2 | 1195 ± 2 | 2.531 ± 0.048 | 2.133 ± 0.04 | 1.821 ± 0.034
x1 = 0.9509 | 800.83 ± 0.97 | 796.75 ± 0.97 | 792.59 ± 0.97 | 1242 ± 2 | 1223 ± 2 | 1204 ± 2 | 3.19 ± 0.06 | 2.635 ± 0.05 | 2.215 ± 0.042
x1 = 1 | 809.04 ± 0.99 | 805.01 ± 0.99 | 800.9 ± 0.99 | 1250 ± 2 | 1232 ± 2 | 1214 ± 2 | 4.001 ± 0.075 | 3.273 ± 0.063 | 2.708 ± 0.053
